Reference: PubChem BioAssay (NCI)
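Step 1: Grow cells in 96-well plates. Step 2: Expose to compound for 48 hours at 5 concentrations. Step 3: Interpolate endpoints linearly; if unreached, use highest concentration. TGI: total growth inhibition.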

Assays:
Assay in all cases: NCI tumour cell line growth inhibition, 48 h
786-0 renal = system: 786-0 renal
A498 renal = system: A498 renal
A549 NSCLC = system: A549 NSCLC
ACHN renal = system: ACHN renal
CAKI-1 renal = system: CAKI-1 renal
CCRF-CEM leukemia = system: CCRF-CEM leukemia
COLO 205 colon = system: COLO 205 colon
DLD-1 colon = system: DLD-1 colon
DMS 114 small cell lung = system: DMS 114 small cell lung
DMS 273 small cell lung = system: DMS 273 small cell lung
EKVX NSCLC = system: EKVX NSCLC
HCC-2998 colon = system: HCC-2998 colon
HCT-116 colon = system: HCT-116 colon
HCT-15 colon = system: HCT-15 colon
HL-60(TB) leukemia = system: HL-60(TB) leukemia
HOP-62 NSCLC = system: HOP-62 NSCLC
HOP-92 NSCLC = system: HOP-92 NSCLC
HT29 colon = system: HT29 colon
IGROV1 ovarian = system: IGROV1 ovarian
K-562 leukemia = system: K-562 leukemia
KM12 colon = system: KM12 colon
KM20L2 colon = system: KM20L2 colon
LOX IMVI melanoma = system: LOX IMVI melanoma
LXFL 529 NSCLC = system: LXFL 529 NSCLC
M14 melanoma = system: M14 melanoma
M19-MEL melanoma = system: M19-MEL melanoma
MALME-3M melanoma = system: MALME-3M melanoma
MOLT-4 leukemia = system: MOLT-4 leukemia
NCI-H226 lung = system: NCI-H226 lung
NCI-H23 lung = system: NCI-H23 lung
NCI-H460 lung = system: NCI-H460 lung
NCI-H522 lung = system: NCI-H522 lung
OVCAR-3 ovarian = system: OVCAR-3 ovarian
OVCAR-4 ovarian = system: OVCAR-4 ovarian
OVCAR-5 ovarian = system: OVCAR-5 ovarian
RPMI-8226 leukemia = system: RPMI-8226 leukemia
RXF 393 renal = system: RXF 393 renal
RXF-631 renal = system: RXF-631 renal
SF-268 CNS = system: SF-268 CNS
SF-295 CNS = system: SF-295 CNS
SF-539 CNS = system: SF-539 CNS
SK-MEL-2 melanoma = system: SK-MEL-2 melanoma
SK-MEL-5 melanoma = system: SK-MEL-5 melanoma
SK-OV-3 ovarian = system: SK-OV-3 ovarian
SN12C renal = system: SN12C renal
SNB-19 CNS = system: SNB-19 CNS
SNB-75 CNS = system: SNB-75 CNS
SNB-78 CNS = system: SNB-78 CNS
SR leukemia = system: SR leukemia
SW-620 colon = system: SW-620 colon
TK-10 renal = system: TK-10 renal
U251 CNS = system: U251 CNS
UO-31 renal = system: UO-31 renal
XF 498 CNS = system: XF 498 CNS
HOP-18 NSCLC = system: HOP-18 NSCLC
OVCAR-8 ovarian = system: OVCAR-8 ovarian
SK-MEL-28 melanoma = system: SK-MEL-28 melanoma
UACC-257 melanoma = system: UACC-257 melanoma
BT-549 breast = system: BT-549 breast
DU-145 prostate = system: DU-145 prostate
HS 578T breast = system: HS 578T breast
MCF7 breast = system: MCF7 breast
MDA-MB-231 breast = system: MDA-MB-231 breast
MDA-MB-435 = system: MDA-MB-435
MDA-N = system: MDA-N
NCI/ADR-RES ovarian = system: NCI/ADR-RES ovarian
P388 leukemia = system: P388 leukemia
P388/ADR leukemia = system: P388/ADR leukemia
PC-3 prostate = system: PC-3 prostate
SN12K1 renal = system: SN12K1 renal
T-47D breast = system: T-47D breast
UACC-62 melanoma = system: UACC-62 melanoma

CCOC(=O)CCC(NC(=O)c1ccc(NCc2ccc3nc(-c4ccccc4)c(Cl)nc3c2)cc1)C(=O)OCC (stereo not drawn)
TGI (786-0 renal): > 100 µM
TGI (A498 renal): 78.6 µM
TGI (A549 NSCLC): > 100 µM
TGI (ACHN renal): > 100 µM
TGI (CAKI-1 renal): > 100 µM
TGI (CCRF-CEM leukemia): > 100 µM
TGI (COLO 205 colon): 41.7 µM
TGI (DLD-1 colon): > 100 µM
TGI (DMS 114 small cell lung): > 100 µM
TGI (DMS 273 small cell lung): > 100 µM
TGI (EKVX NSCLC): > 100 µM
TGI (HCC-2998 colon): > 100 µM
TGI (HCT-116 colon): > 100 µM
TGI (HCT-15 colon): > 100 µM
TGI (HL-60(TB) leukemia): > 100 µM
TGI (HOP-62 NSCLC): > 100 µM
TGI (HOP-92 NSCLC): 27.3 µM
TGI (HT29 colon): > 100 µM
TGI (IGROV1 ovarian): > 100 µM
TGI (K-562 leukemia): > 100 µM
TGI (KM12 colon): > 100 µM
TGI (KM20L2 colon): > 100 µM
TGI (LOX IMVI melanoma): > 100 µM
TGI (LXFL 529 NSCLC): > 100 µM
TGI (M14 melanoma): 39.5 µM
TGI (M19-MEL melanoma): 43.2 µM
TGI (MALME-3M melanoma): 26 µM
TGI (MOLT-4 leukemia): 44.9 µM
TGI (NCI-H226 lung): > 100 µM
TGI (NCI-H23 lung): > 100 µM
TGI (NCI-H460 lung): > 100 µM
TGI (NCI-H522 lung): 57.8 µM
TGI (OVCAR-3 ovarian): 59.2 µM
TGI (OVCAR-4 ovarian): 90.6 µM
TGI (OVCAR-5 ovarian): > 100 µM
TGI (RPMI-8226 leukemia): 81.2 µM
TGI (RXF 393 renal): > 100 µM
TGI (RXF-631 renal): 70.3 µM
TGI (SF-268 CNS): > 100 µM
TGI (SF-295 CNS): > 100 µM
TGI (SF-539 CNS): > 100 µM
TGI (SK-MEL-2 melanoma): 25.9 µM
TGI (SK-MEL-5 melanoma): 23.7 µM
TGI (SK-OV-3 ovarian): > 100 µM
TGI (SN12C renal): > 100 µM
TGI (SNB-19 CNS): > 100 µM
TGI (SNB-75 CNS): > 100 µM
TGI (SNB-78 CNS): > 100 µM
TGI (SR leukemia): > 100 µM
TGI (SW-620 colon): > 100 µM
TGI (TK-10 renal): > 100 µM
TGI (U251 CNS): > 100 µM
TGI (UO-31 renal): 65.8 µM
TGI (XF 498 CNS): 20.4 µM

O=C1C2[C@@H](C(=O)N1c1ccc(Br)cc1)C13C(=CC2([N+](=O)[O-])[C@@H]2C(=O)N(c4ccc(Br)cc4)C(=O)[C@@H]21)c1ccccc1N3c1ccccc1 (stereo partly drawn)
TGI (786-0 renal): 31.1 µM
TGI (A549 NSCLC): > 100 µM
TGI (ACHN renal): > 100 µM
TGI (CCRF-CEM leukemia): > 100 µM
TGI (COLO 205 colon): > 100 µM
TGI (DLD-1 colon): > 100 µM
TGI (DMS 114 small cell lung): > 100 µM
TGI (EKVX NSCLC): > 100 µM
TGI (HCC-2998 colon): > 100 µM
TGI (HCT-15 colon): > 100 µM
TGI (HL-60(TB) leukemia): > 100 µM
TGI (HOP-18 NSCLC): > 100 µM
TGI (HOP-92 NSCLC): > 100 µM
TGI (K-562 leukemia): > 100 µM
TGI (KM12 colon): > 100 µM
TGI (LOX IMVI melanoma): > 100 µM
TGI (M14 melanoma): > 100 µM
TGI (M19-MEL melanoma): > 100 µM
TGI (MALME-3M melanoma): > 100 µM
TGI (MOLT-4 leukemia): > 100 µM
TGI (NCI-H226 lung): > 100 µM
TGI (NCI-H23 lung): > 100 µM
TGI (NCI-H522 lung): > 100 µM
TGI (OVCAR-3 ovarian): > 100 µM
TGI (OVCAR-5 ovarian): > 100 µM
TGI (OVCAR-8 ovarian): > 100 µM
TGI (RPMI-8226 leukemia): > 100 µM
TGI (RXF 393 renal): > 100 µM
TGI (RXF-631 renal): > 100 µM
TGI (SF-268 CNS): 24.2 µM
TGI (SF-295 CNS): > 100 µM
TGI (SF-539 CNS): > 100 µM
TGI (SK-MEL-2 melanoma): > 100 µM
TGI (SK-MEL-28 melanoma): > 100 µM
TGI (SN12C renal): > 100 µM
TGI (SNB-19 CNS): > 100 µM
TGI (SNB-75 CNS): > 100 µM
TGI (SNB-78 CNS): > 100 µM
TGI (SR leukemia): > 100 µM
TGI (SW-620 colon): > 100 µM
TGI (TK-10 renal): > 100 µM
TGI (U251 CNS): > 100 µM
TGI (UACC-257 melanoma): > 100 µM
TGI (UO-31 renal): 38.7 µM
TGI (XF 498 CNS): > 100 µM

CS(=O)(=O)CS(=O)(=O)OCCCl
TGI (786-0 renal): 514 µM
TGI (A498 renal): 1350 µM
TGI (A549 NSCLC): 1640 µM
TGI (ACHN renal): 524 µM
TGI (BT-549 breast): 181 µM
TGI (CAKI-1 renal): 799 µM
TGI (CCRF-CEM leukemia): 687 µM
TGI (COLO 205 colon): 831 µM
TGI (DLD-1 colon): 1450 µM
TGI (DMS 114 small cell lung): 339 µM
TGI (DMS 273 small cell lung): 995 µM
TGI (DU-145 prostate): 748 µM
TGI (EKVX NSCLC): 1080 µM
TGI (HCC-2998 colon): 727 µM
TGI (HCT-116 colon): 661 µM
TGI (HCT-15 colon): 1090 µM
TGI (HL-60(TB) leukemia): 541 µM
TGI (HOP-18 NSCLC): 1380 µM
TGI (HOP-62 NSCLC): 151 µM
TGI (HOP-92 NSCLC): 824 µM
TGI (HS 578T breast): 1790 µM
TGI (HT29 colon): 1320 µM
TGI (IGROV1 ovarian): 911 µM
TGI (K-562 leukemia): 3120 µM
TGI (KM12 colon): 1120 µM
TGI (KM20L2 colon): 1240 µM
TGI (LOX IMVI melanoma): 497 µM
TGI (M14 melanoma): 770 µM
TGI (M19-MEL melanoma): 937 µM
TGI (MALME-3M melanoma): 1270 µM
TGI (MCF7 breast): 1420 µM
TGI (MDA-MB-231 breast): 918 µM
TGI (MDA-MB-435): 2330 µM
TGI (MDA-N): 470 µM
TGI (MOLT-4 leukemia): 629 µM
TGI (NCI-H226 lung): 785 µM
TGI (NCI-H23 lung): 494 µM
TGI (NCI-H460 lung): 448 µM
TGI (NCI-H522 lung): 723 µM
TGI (NCI/ADR-RES ovarian): 1960 µM
TGI (OVCAR-3 ovarian): 983 µM
TGI (OVCAR-4 ovarian): 1040 µM
TGI (OVCAR-5 ovarian): 1260 µM
TGI (OVCAR-8 ovarian): 1270 µM
TGI (P388 leukemia): 306 µM
TGI (P388/ADR leukemia): 447 µM
TGI (PC-3 prostate): 990 µM
TGI (RPMI-8226 leukemia): 3170 µM
TGI (RXF 393 renal): 611 µM
TGI (SF-268 CNS): 990 µM
TGI (SF-295 CNS): 554 µM
TGI (SF-539 CNS): 266 µM
TGI (SK-MEL-2 melanoma): 856 µM
TGI (SK-MEL-28 melanoma): 1510 µM
TGI (SK-MEL-5 melanoma): 777 µM
TGI (SK-OV-3 ovarian): 423 µM
TGI (SN12C renal): 706 µM
TGI (SN12K1 renal): 963 µM
TGI (SNB-19 CNS): 969 µM
TGI (SNB-75 CNS): 256 µM
TGI (SNB-78 CNS): 420 µM
TGI (SR leukemia): 876 µM
TGI (SW-620 colon): 1100 µM
TGI (T-47D breast): 1530 µM
TGI (TK-10 renal): 1280 µM
TGI (U251 CNS): 664 µM
TGI (UACC-257 melanoma): 808 µM
TGI (UACC-62 melanoma): 268 µM
TGI (UO-31 renal): 1080 µM
